# Read-outs that look alike come from different tables or passages of the source.
# Experiments:
# lung cancer cell A549 = assay: MTT assay against lung cancer cell A549; assay type: cell-based
# Method: 1. Collect the lung cancer cell A549 in the logarithmic phase to prepare cell suspension, adjust its concentration to 5×10^6-10×10^6/ml, add 100 ul to each hole, pave the plate to adjust the cell density to 1000-10000 holes; fill the holes on the edges with sterile PBS;
# (§1) 2. Incubate cells under the condition of 5% CO2 and 37° C. until the cell monolayer are paved on 96-hole plate bottom; after cell adhesion for 2-12 h, add the low molecular polypeptide ZY4 at a concentration of 100 ug/ml and 200 ug/ml, paclitaxel at a concentration of 10 ug/ml and 5 ug/ml to incubate for 16-48 h under the condition of 5% CO2 and 37° C., and then observe under an inverted microscope;
# (§2) 3. Add 20 ul of 5 mg/ml MTT solution to each hole, to continue to culture 4 h, and then draw the culture solution in the hole;
# (§3) 4. Add 150 ul of DMSO to each hole, place to a shaker for oscillation 10 min at a low speed, to allow the crystals fully dissolved, measure the absorbance values of each hole at OD 490 nm using a ELISA Reader; at the same time, set the zero hole and control hole.
# [1] = test system: breast cancer cell MDA-435
# Method: 1. Collect the breast cancer cell MDA-435 in the logarithmic phase to prepare cell suspension, adjust its concentration to 5×10^6-10×10^6/ml, add 100 ul to each hole, pave the plate to adjust the cell density to 1000-10000 holes; fill the holes on the edges with sterile PBS;
# as §1, with “50-300 ug/ml,” for “100 ug/ml”, “the same volume” for “200 ug/ml, paclitaxel at a concentration”, “NS as control,” for “10 ug/ml and 5 ug/ml”
# as §2, §3
# melanoma cell A357 = settings: NS control 1.0
# Method: 1. Collect the melanoma cell A357 in the logarithmic phase to prepare cell suspension, adjust its concentration to 5×10^6-10×10^6/ml, add 100 ul to each hole, pave the plate to adjust the cell density to 1000-10000 holes; fill the holes on the edges with sterile PBS;
# as §1, with “and the same volume” for “paclitaxel at a concentration”, “NS as control,” for “10 ug/ml and 5 ug/ml”
# as §2, §3
# liver cancer cell HepG2 = settings: NS control 1.0
# Method: 1. Collect the liver cancer cell HepG2 in the logarithmic phase to prepare cell suspension, adjust its concentration to 5×10^6-10×10^6/ml, add 100 ul to each hole, pave the plate to adjust the cell density to 1000-10000 holes; fill the holes on the edges with sterile PBS;
# as §1, with “and the same volume” for “paclitaxel at a concentration”, “NS as control,” for “10 ug/ml and 5 ug/ml”
# as §2, §3
# [2] = test system: gastric cancer cell SGC7901
# Method: 1. Collect the gastric cancer cell SGC7901 in the logarithmic phase to prepare cell suspension, adjust its concentration to 5×10^6-10×10^6/ml, add 100 ul to each hole, pave the plate to adjust the cell density to 1000-10000 holes; fill the holes on the edges with sterile PBS;
# as §1, with “50-300 ug/ml,” for “100 ug/ml”, “the same volume” for “200 ug/ml, paclitaxel at a concentration”, “NS as control,” for “10 ug/ml and 5 ug/ml”
# as §2, §3
# Escherichia coli = settings: 37° C., 24 h
# Method: (§4) Prepare Escherichia coli, Candida albicans, Staphylococcus aureus, Bacillus subtilis, Staphylococcus haemolyticus, Staphylococcus epidermidis, Staphylococcus cohnii solutions respectively, incubate at 37° C. for 18 h, for standby;
# (§5) Prepare Broth Agar Medium, and sterilize it for standby;
# (§6) Dissolve the Broth Agar Medium, cool down to 50° C., add 1 ml of Escherichia coli, Candida albicans, Staphylococcus aureus, Bacillus subtilis, Staphylococcus haemolyticus, Staphylococcus epidermidis, Staphylococcus cohnii solutions respectively, shake gently and pour into a sterile petri dish, gently shake the medium to evenly pave on the dish;
# (§7) Place the filters into a cooled dish using a sterile tweezer orderly, cover with a tile cover and mark, then place to a 37° C. incubator for incubation for 24 h;
# Candida albicans = settings: 37° C., 24 h
# Method: as §4, §5, §6, §7
# Staphylococcus aureus = settings: 37° C., 24 h
# Method: as §4, §5, §6, §7
# Bacillus subtilis = settings: 37° C., 24 h
# Method: as §4, §5, §6, §7
# [3] = test system: Staphylococcus aureus (09B2499); settings: 37° C., 24 h
# Method: as §4, §5, §6, §7
# [4] = test system: Staphylococcus haemolyticus (09A4394 anti-ampicillin); settings: 37° C., 24 h
# Method: as §4, §5, §6, §7
# [5] = test system: Staphylococcus epidermidis (09A3726 anti-ampicillin); settings: 37° C., 24 h
# Method: as §4, §5, §6, §7
# [6] = test system: Staphylococcus cohnii (09B2490 anti-ampicillin); settings: 37° C., 24 h
# Method: as §4, §5, §6, §7
# P. acnes ATCC11817 = settings: 2 mg/ml ointment on left ear skin, once every 8 h, 3 times, mice sacrificed 24 h later; PEG control 9.44×10^5
# Method: Select Kunming male mice at a weight of 18 g each, and randomly divide them into 3 groups, 6 mice each group, respectively the treatment group, positive control group, negative control group. Each mouse is anaesthetized with 120 ul of 1% pentobarbital sodium by intraperitoneal injection, and then injected with 20 ul of resuspended bacteria solution via intracutaneous injection in the left ear of each mouse;
# Disinfect the left ears of mice with a clean alcohol cotton ball, cut off the left ears into pieces, transfer to a homogenizer for homogenization. Add 1 ml of NS for homogenization for one ear;
# Dilute the homogenate to 1,000-fold, take 50 ul of diluent and apply to a brain heart infusion agar plate, culture at 37° C. under the anaerobic condition for 72 h, and count the colonies.
# P. acnes ATCC6919 = settings: 2 mg/ml ointment on left ear skin, treated for 1 day; 0.20 mm before treatment, PEG control 0.43 mm
# Method: Select Kunming male mice at a weight of 18 g each, and randomly divide them into 3 groups, 9 mice each group, respectively the treatment group, positive control group, negative control group. Each mouse is anaesthetized with 50 ul of ketamine by intraperitoneal injection, and then injected with 20 ul of resuspended bacteria solution via intracutaneous injection in the left ear of each mouse;
# Disinfect the left ears of mice with a clean alcohol cotton ball, and measure the thickness of the ears of mice, results are shown in FIG. 2.
smiles,measurement,setting,value
CC(C)[C@H](N)C(=O)N[C@H]1CSSC[C@@H](C(=O)N[C@H](C(N)=O)C(C)C)NC(=O)[C@H](Cc2c[nH]c3ccccc23)NC(=O)[C@H](CCCCN)NC(=O)[C@H](CCCCN)NC(=O)[C@H](Cc2c[nH]c3ccccc23)NC(=O)[C@H](CCCCN)NC(=O)[C@H](CCCNC(=N)N)NC(=O)[C@H](CCCCN)NC(=O)[C@H](Cc2c[nH]c3ccccc23)NC(=O)[C@H](CCCCN)NC(=O)[C@H](CCCCN)NC(=O)[C@H](Cc2c[nH]c3ccccc23)NC(=O)[C@H](CCCNC(=N)N)NC(=O)[C@H](CCCCN)NC1=O [ZY4],"OD value (MTT, OD 490 nm)","lung cancer cell A549; A549, 100 ug/ml ZY4, 16-48 h",0.5
same,"OD value (MTT, OD 490 nm)","lung cancer cell A549; A549, 200 ug/ml ZY4, 16-48 h",0.3
same,"OD value (MTT, OD 490 nm)","[1]; MDA-435, 50 ug/ml ZY4, 16-48 h",0.7
same,"OD value (MTT, OD 490 nm)","[1]; MDA-435, 100 ug/ml ZY4, 16-48 h",0.61
same,"OD value (MTT, OD 490 nm)","[1]; MDA-435, 200 ug/ml ZY4, 16-48 h",0.20
same,"OD value (MTT, OD 490 nm)","[1]; MDA-435, 300 ug/ml ZY4, 16-48 h",0.17
same,"OD value (MTT, OD 490 nm)","melanoma cell A357; A357, 100 ug/ml ZY4, 16-48 h",1.0
same,"OD value (MTT, OD 490 nm)","melanoma cell A357; A357, 200 ug/ml ZY4, 16-48 h",0.72
same,"OD value (MTT, OD 490 nm)","liver cancer cell HepG2; HepG2, 100 ug/ml ZY4, 16-48 h",0.89
same,"OD value (MTT, OD 490 nm)","liver cancer cell HepG2; HepG2, 200 ug/ml ZY4, 16-48 h",0.6
same,"OD value (MTT, OD 490 nm)","[2]; SGC7901, 50 ug/ml ZY4, 16-48 h",0.65
same,"OD value (MTT, OD 490 nm)","[2]; SGC7901, 100 ug/ml ZY4, 16-48 h",0.57
same,"OD value (MTT, OD 490 nm)","[2]; SGC7901, 200 ug/ml ZY4, 16-48 h",0.2
same,"OD value (MTT, OD 490 nm)","[2]; SGC7901, 300 ug/ml ZY4, 16-48 h",0.09
same,Minimum inhibitory concentration,Escherichia coli,12.15 µg/mL
same,Minimum inhibitory concentration,Candida albicans,2.12 µg/mL
same,Minimum inhibitory concentration,Staphylococcus aureus,2.14 µg/mL
same,Minimum inhibitory concentration,Bacillus subtilis,1.10 µg/mL
same,Minimum inhibitory concentration,[3],2.25 µg/mL
same,Minimum inhibitory concentration,[4],2.17 µg/mL
same,Minimum inhibitory concentration,[5],2.45 µg/mL
same,Minimum inhibitory concentration,[6],1.10 µg/mL
same,CFU of P. acnes after treatment,P. acnes ATCC11817,2.1×10^5 CFU
same,thickness of mice ear,P. acnes ATCC6919,0.25 mm
"CC(=O)O[C@H]1C(=O)[C@@]2(C)[C@H]([C@H](OC(=O)c3ccccc3)[C@]3(O)C[C@H](OC(=O)[C@H](O)[C@@H](NC(=O)c4ccccc4)c4ccccc4)C(C)=C1C3(C)C)[C@]1(OC(C)=O)CO[C@@H]1C[C@@H]2O [paclitaxel, reference compound]","OD value (MTT, OD 490 nm)","lung cancer cell A549; A549, 10 ug/ml paclitaxel (first statement), 16-48 h",0.5
same,"OD value (MTT, OD 490 nm)","lung cancer cell A549; A549, 10 ug/ml paclitaxel (second statement), 16-48 h",0.7
